Test results reported in ChEMBL document CHEMBL1201862, “PubChem BioAssay data set” (2004).
Calls of active or inactive are those of the source.

How the values were obtained:
[1] = biological target: Acylamino-acid-releasing enzyme (Homo sapiens, UniProt P13798); assay: endogenous PME-1 and serine hydrolase inhibition – cell lysate, mouse brain cytosol, FP-rhodamine, gel ABPP, selectivity assay for PME-1 inhibitor project, dose response, panel member APEH Assay Panel member description: Inhibition of N-acylaminoacyl-peptide hydrolase (APEH) (anti-target) (AID 2366)
[2] = Late stage results from the probe development effort to identify inhibitors of the protein methylesterase PME-1: Luminescence-based counterscreen assay to identify cytotoxic compounds.; assay type: functional
cells = assay type: functional
Streptococcus = assay: GAS UMAA2166 growth inhibition – luminescence, BacTiterGlo, counter-screen for streptokinase expression inhibitor project, dose response (AID 1915); assay type: functional, organism-based;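 further: potency for reduction of bacterial viability or growth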
[3] = Vero E6 cell cytotoxicity, dose response, cytotoxicity control for non-replicating M. tuberculosis project, secondary assay (AID 492998); assay type: functional, VeroE6; details: Vero C1008
[4] = microbe, parasite or virus in culture; assay type: functional; details: Mycobacterium tuberculosis
[5] = system: Streptococcus sp. 'group A'; assay: Streptococcus pyogenes SK(-)GAS viability under kanamycin – luminescence, BacTiterGlo, confirmation, counter-screen for streptokinase expression inhibitor project, dose response (AID 1900); assay type: functional, organism-based
[6] = biological target: NACHT, LRR and PYD domains-containing protein 3 (Homo sapiens, UniProt Q96P20); assay: NALP3 inhibitors in yeast, dose response, luminescent (AID 488799); assay type: functional
Estrogen receptor = biological target: T1, Estrogen receptor (Homo sapiens, UniProt P03372);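 further: potency for inhibiting coactivator peptide recruitment to the receptor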
T1 sequence (P03372 whole entry): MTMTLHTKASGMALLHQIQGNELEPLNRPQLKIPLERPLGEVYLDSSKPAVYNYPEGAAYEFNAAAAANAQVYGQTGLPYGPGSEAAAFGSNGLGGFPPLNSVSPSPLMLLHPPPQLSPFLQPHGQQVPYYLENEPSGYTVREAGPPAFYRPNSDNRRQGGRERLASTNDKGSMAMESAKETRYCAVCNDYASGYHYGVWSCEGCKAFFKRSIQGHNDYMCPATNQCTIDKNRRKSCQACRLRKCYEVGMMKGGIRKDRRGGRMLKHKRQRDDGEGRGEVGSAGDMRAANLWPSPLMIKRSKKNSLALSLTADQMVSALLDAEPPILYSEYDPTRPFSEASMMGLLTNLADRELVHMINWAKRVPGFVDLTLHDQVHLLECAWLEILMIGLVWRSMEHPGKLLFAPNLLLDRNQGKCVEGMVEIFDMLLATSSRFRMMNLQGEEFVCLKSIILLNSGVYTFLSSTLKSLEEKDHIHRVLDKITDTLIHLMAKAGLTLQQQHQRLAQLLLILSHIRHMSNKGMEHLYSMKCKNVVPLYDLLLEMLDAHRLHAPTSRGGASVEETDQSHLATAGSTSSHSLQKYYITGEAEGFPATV

[7] = biological target: T2, Alkaline phosphatase, tissue-nonspecific isozyme (Homo sapiens, UniProt P05186); assay: potency against alkaline phosphatase TNAP – biochemical, luminescent, dose response, SAR follow-up (AID 1056)
T2 sequence (P05186 whole entry): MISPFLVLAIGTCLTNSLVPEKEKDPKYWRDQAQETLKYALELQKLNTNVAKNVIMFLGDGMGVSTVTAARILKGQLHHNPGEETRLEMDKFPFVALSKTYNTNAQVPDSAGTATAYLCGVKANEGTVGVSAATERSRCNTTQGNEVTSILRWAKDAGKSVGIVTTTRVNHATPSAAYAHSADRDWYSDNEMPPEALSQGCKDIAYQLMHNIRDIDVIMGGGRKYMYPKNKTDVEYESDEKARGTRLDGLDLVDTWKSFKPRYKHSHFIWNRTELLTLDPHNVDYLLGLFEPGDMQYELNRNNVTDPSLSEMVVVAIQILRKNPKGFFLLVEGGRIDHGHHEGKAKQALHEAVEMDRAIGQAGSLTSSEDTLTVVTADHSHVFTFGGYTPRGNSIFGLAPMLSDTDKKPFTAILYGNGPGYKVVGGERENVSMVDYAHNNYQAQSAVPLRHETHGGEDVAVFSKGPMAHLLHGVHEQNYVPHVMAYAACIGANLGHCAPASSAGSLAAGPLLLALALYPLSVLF

[8] = biological target: Alkaline phosphatase, placental type (Homo sapiens, UniProt P05187); assay: human placental alkaline phosphatase inhibition – biochemical, luminescence, confirmation (AID 1512); assay type: functional
[9] = biological target: T3, Kappa-type opioid receptor (Homo sapiens, UniProt P41145); assay: SAR analysis of small molecule agonists of the kappa opioid receptor via a luminescent beta-arrestin assay. [Related pubchem assays (depositor defined):AID1777, AID1786, AID1966, AID2133, AID2136, AID2348, AID2352, AID2357, AID2359, AID2370, AID2420, AID2478, AID2491, AID2492, AID2493, AID2497, AID2498, AID2500, AID449737, AID488822, AID488842]; assay type: functional
[10] = biological target: T3, Kappa-type opioid receptor; assay: kappa opioid receptor activation potency – imaging, image-based, SAR follow-up (AID 2359); assay type: functional
[11] = biological target: T4, Delta-type opioid receptor (Homo sapiens, UniProt P41143); assay: delta opioid receptor blockers – image-based, SAR follow-up (AID 2357); assay type: functional
[12] = biological target: T4, Delta-type opioid receptor; assay: HTS Image-Based Screen for Agonists of the DOR Receptor. [Related pubchem assays (depositor defined):AID1777, AID1786, AID2133]; assay type: functional
[13] = biological target: T3, Kappa-type opioid receptor; assay type: functional
[14] = biological target: T3, Kappa-type opioid receptor; assay type: functional; remark: listed apart in the source
[15] = biological target: T3, Kappa-type opioid receptor; assay: kappa opioid receptor blockers, image-based, SAR follow-up (AID 2348); assay type: functional
[16] = biological target: T4, Delta-type opioid receptor; assay: HTS Image-Based Screen for Antagonists of the DOR Receptor. [Related pubchem assays (depositor defined):AID1777, AID1785, AID1786, AID2133]; assay type: functional
Mu-type opioid receptor [17] = biological target: T5, Mu-type opioid receptor (Homo sapiens, UniProt P35372); assay: mu opioid receptor blockers – image-based, SAR follow-up (AID 2420); assay type: functional;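 further: compounds added before stimulation of receptor with agonist DAMGO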
Mu-type opioid receptor [18] = biological target: T5, Mu-type opioid receptor; assay: HTS Image-Based Screen for Agonists of the MOR Receptor. [Related pubchem assays (depositor defined):AID1777, AID1785, AID1786, AID2133]; assay type: functional
[19] = biological target: T4, Delta-type opioid receptor; assay: DOR agonists, SAR follow-up, image-based (AID 2370); assay type: functional
Mu-type opioid receptor [20] = biological target: T5, Mu-type opioid receptor; assay: mu opioid receptor activators, image-based, SAR follow-up (AID 2352); assay type: functional
[21] = biological target: DNA dC->dU-editing enzyme APOBEC-3G (Homo sapiens, UniProt Q9HC16); assay type: functional;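 further: Dose-response counterscreen measuring inhibition of APOBEC3G DNA deaminase activity, run while confirming APOBEC3A inhibitors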
[22] = biological target: Eukaryotic translation initiation factor 4H (Homo sapiens, UniProt Q15056); assay: eIF4H binding inhibition – biochemical, uHTS, fluorescence polarization, translation initiation inhibitor project, primary screen (AID 2012)
[23] = biological target: Polyadenylate-binding protein 1 (Homo sapiens, UniProt P11940); assay: blockers of PABP interaction with poly(A) – biochemical, fluorescence polarization, […] (AID 2014)
[24] = biological target: DNA dC->dU-editing enzyme APOBEC-3A (Homo sapiens, UniProt P31941); assay: Dose Response confirmation of small molecule APOBEC3A DNA Deaminase Inhibitors via a fluorescence-based single-stranded DNA deaminase assay. [Related pubchem assays (depositor defined):AID493011, AID493024]; assay type: functional
[25] = biological target: T6, Type-1 angiotensin II receptor (Homo sapiens, UniProt P30556); assay: agonist activity at AGTR1 – cell-based, uHTS hits, selectivity assay for APJ receptor agonist project, dose response (AID 488865); assay type: functional;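 further: beta-arrestin recruitment to AT1 measured by enzyme fragment complementation luminescence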
T6 sequence (P30556 whole entry): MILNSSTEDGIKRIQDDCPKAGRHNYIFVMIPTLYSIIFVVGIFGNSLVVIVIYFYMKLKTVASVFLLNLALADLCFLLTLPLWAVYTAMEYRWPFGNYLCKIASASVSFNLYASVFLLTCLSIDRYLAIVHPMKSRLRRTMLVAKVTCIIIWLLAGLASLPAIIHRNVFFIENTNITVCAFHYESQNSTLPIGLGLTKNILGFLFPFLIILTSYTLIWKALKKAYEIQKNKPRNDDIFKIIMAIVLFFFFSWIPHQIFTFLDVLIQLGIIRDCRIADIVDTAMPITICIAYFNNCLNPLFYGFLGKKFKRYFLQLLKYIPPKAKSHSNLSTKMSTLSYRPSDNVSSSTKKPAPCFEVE

Vero = assay: cells; assay type: functional; details: Chlorocebus sabaeus
[26] = biological target: T7, Voltage-gated N-type calcium channel alpha-1B subunit/Amyloid beta A4 precursor protein-binding family A member 1 (Homo sapiens, UniProt Q00975+Q02410); assay type: protein assay
[27] = biological target: T7, Voltage-gated N-type calcium channel alpha-1B subunit/Amyloid beta A4 precursor protein-binding family A member 1; assay type: protein assay; remark: listed apart in the source
Phosphomannomutase 2 = Phosphomannomutase 2 (Homo sapiens, UniProt O15305); assay: Counter screen SAR assay for PMM2 inhibitors via a fluorescence intensity assay. [Related pubchem assays (depositor defined):AID1545, AID1574]
[28] = biological target: T8, Microphthalmia-associated transcription factor (Homo sapiens, UniProt O75030); assay: reducers of TRPM1 reporter luminescence, concentration series – cell-based, SK-MEL-5, cherry-picked, set 3, MITF inhibitor project, dose response (AID 493073); assay type: functional;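 further: SK-MEL-5 melanoma cells with luciferase driven by the MITF target TRPM1 promoter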
T8 sequence (O75030 whole entry): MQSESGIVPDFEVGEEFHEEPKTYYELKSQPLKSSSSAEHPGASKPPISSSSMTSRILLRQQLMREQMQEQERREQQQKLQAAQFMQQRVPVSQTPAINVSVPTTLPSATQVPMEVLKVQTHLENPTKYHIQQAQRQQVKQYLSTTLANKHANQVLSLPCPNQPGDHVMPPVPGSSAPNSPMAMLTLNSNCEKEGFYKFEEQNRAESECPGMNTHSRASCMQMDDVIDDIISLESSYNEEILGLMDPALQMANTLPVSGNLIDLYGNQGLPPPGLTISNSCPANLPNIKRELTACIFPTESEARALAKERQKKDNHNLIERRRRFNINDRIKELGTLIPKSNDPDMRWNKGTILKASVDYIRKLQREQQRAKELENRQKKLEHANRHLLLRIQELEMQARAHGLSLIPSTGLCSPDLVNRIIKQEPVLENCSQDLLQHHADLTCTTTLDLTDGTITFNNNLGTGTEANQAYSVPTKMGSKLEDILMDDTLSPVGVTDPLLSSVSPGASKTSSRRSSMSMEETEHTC

[29] = NIH/3T3 cell viability loss – mouse embryonic fibroblasts, dry powder, set 2, cytotoxicity control, dose response (AID 493247); assay type: functional, cell-based; details: Fibroblast
[30] = Trypanosoma cruzi growth suppression in host cells – NIH3T3 host cells, beta-gal luminescence, confirmation (AID 2044); assay type: functional, cell-based;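 further: intracellular parasites grown in NIH/3T3 mouse fibroblasts as host cells; luminescent beta-galactosidase reporter signal from transgenic T. cruzi replicating inside host cells; inhibitors lower the luminescence signal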
[31] = viability of PTEN-deleted HCT116 cells – cell-based, HCT116 PTEN knockout, dose response (AID 1047); assay type: functional;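 further: HCT116 colon tumor cells with PTEN knocked out; cells exposed to compound for 60 hours before readout; potency for loss of cell viability measured by luminescence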
[32] = NIH3T3 cell viability loss – ATP luminescence, mouse fibroblasts, counter-screen, dose response (AID 2010); assay type: functional, cell-based;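 further: cells exposed to compound for about 90 hours before reading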
[33] = viability of HCT116 lacking mutant beta-catenin – cell-based, human colon tumor, dose response (AID 1045); assay type: functional;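 further: HCT116 colon tumor cells with beta catenin knocked out; cells exposed to compound for 60 hours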
Trypanosoma cruzi = assay: anti-trypanosomal activity in host cells – cell-based, plate reader, dry powder, set 3, dose response (AID 493197); assay type: functional
[34] = biological target: G-protein coupled receptor 55 (Homo sapiens, UniProt Q9Y2T6); assay: inhibition of LPI-stimulated GPR55 beta-arrestin translocation – imaging, U2OS, beta-arrestin-GFP, LPI agonist, primary screen (AID 2013); assay type: functional;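 further: antagonist potency measured as reduced agonist-driven arrestin aggregation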

T4 sequence (P41143 whole entry): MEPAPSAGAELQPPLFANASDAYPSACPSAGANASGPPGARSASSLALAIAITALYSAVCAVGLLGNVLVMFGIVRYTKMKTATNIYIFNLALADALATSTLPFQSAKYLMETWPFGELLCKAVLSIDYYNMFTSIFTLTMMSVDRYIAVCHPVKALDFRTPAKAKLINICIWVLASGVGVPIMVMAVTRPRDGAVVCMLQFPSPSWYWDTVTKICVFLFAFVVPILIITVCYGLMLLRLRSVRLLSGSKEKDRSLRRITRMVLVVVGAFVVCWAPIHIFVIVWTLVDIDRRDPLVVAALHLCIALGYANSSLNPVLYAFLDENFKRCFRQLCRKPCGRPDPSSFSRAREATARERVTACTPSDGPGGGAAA
T3 sequence (P41145 whole entry): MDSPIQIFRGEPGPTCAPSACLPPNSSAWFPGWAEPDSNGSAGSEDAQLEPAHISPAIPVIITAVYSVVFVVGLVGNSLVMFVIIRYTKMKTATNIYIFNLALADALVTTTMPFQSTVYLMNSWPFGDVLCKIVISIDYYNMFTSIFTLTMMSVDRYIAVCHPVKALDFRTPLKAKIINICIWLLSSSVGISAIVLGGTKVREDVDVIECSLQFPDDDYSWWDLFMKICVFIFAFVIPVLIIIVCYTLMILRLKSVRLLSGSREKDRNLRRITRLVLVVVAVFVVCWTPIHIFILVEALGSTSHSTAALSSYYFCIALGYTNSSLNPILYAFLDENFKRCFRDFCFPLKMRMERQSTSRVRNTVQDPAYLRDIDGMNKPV
T5 sequence (P35372 whole entry): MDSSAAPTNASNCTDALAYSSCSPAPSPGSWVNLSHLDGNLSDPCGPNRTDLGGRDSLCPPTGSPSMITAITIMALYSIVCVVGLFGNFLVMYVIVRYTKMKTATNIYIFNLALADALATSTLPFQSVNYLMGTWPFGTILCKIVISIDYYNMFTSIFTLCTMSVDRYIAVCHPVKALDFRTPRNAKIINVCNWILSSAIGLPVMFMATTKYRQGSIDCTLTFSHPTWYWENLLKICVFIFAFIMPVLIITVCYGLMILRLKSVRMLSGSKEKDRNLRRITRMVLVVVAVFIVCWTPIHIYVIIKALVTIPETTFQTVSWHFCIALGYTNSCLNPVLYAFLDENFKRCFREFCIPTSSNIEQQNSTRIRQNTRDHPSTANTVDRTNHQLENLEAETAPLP
T7 sequence (Q00975 whole entry): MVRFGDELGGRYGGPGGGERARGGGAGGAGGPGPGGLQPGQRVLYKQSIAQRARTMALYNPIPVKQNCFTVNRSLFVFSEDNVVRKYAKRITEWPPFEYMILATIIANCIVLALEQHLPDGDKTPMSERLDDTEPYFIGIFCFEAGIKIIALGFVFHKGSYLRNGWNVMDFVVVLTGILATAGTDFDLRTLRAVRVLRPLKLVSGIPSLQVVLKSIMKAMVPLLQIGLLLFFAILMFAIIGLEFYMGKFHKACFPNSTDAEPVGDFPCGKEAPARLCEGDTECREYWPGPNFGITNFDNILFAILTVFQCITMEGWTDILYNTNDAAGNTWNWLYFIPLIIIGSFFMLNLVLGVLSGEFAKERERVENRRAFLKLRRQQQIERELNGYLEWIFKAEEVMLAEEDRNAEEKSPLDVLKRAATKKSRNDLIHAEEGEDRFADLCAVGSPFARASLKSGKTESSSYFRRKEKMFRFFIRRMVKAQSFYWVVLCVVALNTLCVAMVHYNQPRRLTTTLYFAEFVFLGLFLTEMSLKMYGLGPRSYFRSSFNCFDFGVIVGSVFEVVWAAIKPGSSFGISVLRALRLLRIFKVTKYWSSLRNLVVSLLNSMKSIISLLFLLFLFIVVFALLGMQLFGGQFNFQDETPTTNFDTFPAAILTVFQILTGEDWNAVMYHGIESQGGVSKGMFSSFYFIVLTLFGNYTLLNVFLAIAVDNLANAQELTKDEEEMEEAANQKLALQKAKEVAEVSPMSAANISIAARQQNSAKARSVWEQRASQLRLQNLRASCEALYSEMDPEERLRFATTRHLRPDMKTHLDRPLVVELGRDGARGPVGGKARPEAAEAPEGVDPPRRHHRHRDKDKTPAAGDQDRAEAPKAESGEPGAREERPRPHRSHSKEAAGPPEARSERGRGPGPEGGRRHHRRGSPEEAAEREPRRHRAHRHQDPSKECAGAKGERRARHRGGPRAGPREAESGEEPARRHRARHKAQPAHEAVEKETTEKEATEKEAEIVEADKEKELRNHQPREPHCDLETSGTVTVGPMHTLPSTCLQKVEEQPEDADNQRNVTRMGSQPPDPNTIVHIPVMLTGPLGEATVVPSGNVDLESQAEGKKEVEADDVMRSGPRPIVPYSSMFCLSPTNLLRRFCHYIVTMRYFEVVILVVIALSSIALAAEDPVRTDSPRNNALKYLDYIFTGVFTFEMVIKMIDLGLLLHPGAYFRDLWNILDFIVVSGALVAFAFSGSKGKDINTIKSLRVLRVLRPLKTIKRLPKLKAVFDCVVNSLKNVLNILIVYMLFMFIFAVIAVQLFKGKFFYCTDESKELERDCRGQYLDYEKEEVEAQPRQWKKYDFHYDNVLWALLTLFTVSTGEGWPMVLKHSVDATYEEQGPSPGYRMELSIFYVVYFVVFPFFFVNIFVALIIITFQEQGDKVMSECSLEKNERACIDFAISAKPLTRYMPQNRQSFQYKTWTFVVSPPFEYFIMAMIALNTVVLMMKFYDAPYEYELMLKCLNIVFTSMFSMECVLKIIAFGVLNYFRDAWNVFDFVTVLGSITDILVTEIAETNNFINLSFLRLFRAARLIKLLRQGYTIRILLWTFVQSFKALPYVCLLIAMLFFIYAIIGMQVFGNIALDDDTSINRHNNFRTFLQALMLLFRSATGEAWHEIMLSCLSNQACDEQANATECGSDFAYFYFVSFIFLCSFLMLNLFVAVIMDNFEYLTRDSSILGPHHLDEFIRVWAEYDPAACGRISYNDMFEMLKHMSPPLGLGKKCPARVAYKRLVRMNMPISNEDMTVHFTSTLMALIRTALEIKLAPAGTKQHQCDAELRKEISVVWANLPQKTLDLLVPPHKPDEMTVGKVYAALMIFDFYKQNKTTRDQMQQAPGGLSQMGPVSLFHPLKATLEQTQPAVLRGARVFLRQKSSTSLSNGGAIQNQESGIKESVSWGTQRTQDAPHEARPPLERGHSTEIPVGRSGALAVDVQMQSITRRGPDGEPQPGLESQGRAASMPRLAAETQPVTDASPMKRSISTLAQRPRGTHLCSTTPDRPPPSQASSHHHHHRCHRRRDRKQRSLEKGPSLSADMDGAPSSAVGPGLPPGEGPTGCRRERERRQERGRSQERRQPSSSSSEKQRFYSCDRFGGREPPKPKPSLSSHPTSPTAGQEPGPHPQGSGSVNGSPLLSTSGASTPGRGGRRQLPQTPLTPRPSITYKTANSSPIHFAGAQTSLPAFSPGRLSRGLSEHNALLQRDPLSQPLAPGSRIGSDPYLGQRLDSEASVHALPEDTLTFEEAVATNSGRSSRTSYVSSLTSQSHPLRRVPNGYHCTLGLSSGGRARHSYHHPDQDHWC
T7 sequence (Q02410 whole entry): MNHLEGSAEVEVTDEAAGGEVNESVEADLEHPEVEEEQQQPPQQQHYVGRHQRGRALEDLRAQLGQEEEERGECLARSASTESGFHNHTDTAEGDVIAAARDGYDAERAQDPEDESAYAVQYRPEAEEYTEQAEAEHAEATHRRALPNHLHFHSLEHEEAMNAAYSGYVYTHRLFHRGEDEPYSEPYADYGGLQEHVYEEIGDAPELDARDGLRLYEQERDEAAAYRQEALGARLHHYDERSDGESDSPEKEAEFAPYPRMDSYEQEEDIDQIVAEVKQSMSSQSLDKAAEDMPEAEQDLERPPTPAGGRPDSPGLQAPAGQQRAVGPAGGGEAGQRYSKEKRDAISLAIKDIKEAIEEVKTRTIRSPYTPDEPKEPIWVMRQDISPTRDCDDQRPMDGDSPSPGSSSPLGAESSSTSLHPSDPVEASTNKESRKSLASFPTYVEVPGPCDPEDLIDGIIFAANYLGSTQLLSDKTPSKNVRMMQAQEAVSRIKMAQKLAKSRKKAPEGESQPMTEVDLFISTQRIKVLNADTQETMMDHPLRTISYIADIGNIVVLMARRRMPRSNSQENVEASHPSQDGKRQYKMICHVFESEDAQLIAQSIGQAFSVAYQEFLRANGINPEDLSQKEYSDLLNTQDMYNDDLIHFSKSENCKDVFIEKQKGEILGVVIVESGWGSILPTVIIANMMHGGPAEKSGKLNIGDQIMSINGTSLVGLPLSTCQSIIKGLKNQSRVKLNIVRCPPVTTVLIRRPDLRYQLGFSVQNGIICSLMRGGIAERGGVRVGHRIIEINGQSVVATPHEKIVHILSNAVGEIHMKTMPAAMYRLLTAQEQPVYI
Sequence of Alkaline phosphatase, placental type (P05187 whole entry): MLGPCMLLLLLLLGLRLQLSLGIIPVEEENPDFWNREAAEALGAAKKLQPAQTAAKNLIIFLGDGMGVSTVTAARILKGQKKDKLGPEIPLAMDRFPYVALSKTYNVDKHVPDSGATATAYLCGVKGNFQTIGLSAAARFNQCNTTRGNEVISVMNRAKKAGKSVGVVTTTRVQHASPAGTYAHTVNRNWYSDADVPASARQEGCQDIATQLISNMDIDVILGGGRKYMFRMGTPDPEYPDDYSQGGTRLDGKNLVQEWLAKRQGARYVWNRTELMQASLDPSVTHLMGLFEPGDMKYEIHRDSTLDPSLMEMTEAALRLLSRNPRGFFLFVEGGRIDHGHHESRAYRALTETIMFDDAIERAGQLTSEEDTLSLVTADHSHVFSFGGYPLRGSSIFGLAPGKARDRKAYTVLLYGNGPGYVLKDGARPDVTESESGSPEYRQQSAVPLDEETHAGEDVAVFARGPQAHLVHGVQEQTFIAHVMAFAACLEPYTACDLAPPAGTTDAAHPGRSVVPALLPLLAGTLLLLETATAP
Sequence of DNA dC->dU-editing enzyme APOBEC-3A (P31941 whole entry, the tested form may be a part): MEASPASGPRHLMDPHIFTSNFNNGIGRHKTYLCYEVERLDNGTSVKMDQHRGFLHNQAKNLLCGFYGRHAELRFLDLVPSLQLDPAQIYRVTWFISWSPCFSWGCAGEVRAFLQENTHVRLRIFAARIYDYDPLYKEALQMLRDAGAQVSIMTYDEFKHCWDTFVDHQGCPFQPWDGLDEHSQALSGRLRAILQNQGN

N#C/C(=C\c1cccn1S(=O)(=O)c1cccc(C#N)c1)S(=O)(=O)c1ccc(F)cc1
IC50 [1]: > 50 µM (inactive)
CC50 [2]: 100 µM (active)

O=c1cc(-c2ccccc2Cl)oc2ccc([N+](=O)[O-])c(O)c12
IC50 (cells): 12.1 µM (active)
EC50 (Streptococcus): 8.09 µM (active)
CC50 [3]: > 20 µM (active)
CC50 [4]: 26.2 µM (active)
EC50 [5]: 4.58 µM (active)
IC50 [6]: 9.17 µM (active)

CNc1nnc(-c2cc3cc(Cl)ccc3oc2=O)s1
IC50 (Estrogen receptor): 11.1 µM (active)
IC50 [7]: > 100 µM (inactive)
IC50 [8]: > 100 µM (inactive)

O=C(c1ccccn1)N(Cc1ccco1)C1(C(=O)NC2CCCCC2)CCCCC1
EC50 [9]: 821 nM (active)
EC50 [10]: 125 nM (active)
IC50 [11]: > 32 µM (inactive)
EC50 [12]: > 32 µM (inactive)
EC50 [13]: < 500 nM
EC50 [14]: 220 nM
IC50 [15]: > 32 µM (inactive)
IC50 [16]: > 32 µM (inactive)
IC50 (Mu-type opioid receptor [17]): > 32 µM (inactive)
EC50 (Mu-type opioid receptor [18]): > 32 µM (inactive)
EC50 [19]: > 32 µM (inactive)
EC50 (Mu-type opioid receptor [20]): > 32 µM (inactive)

Oc1ccccc1C=N[n+]1ccccc1
IC50 [21]: 5.33 µM (active)
IC50 [22]: > 100 µM (inactive)
IC50 [23]: 5.32 µM (active)
IC50 [24]: 2.88 µM (active)

CCN(CC)CCNC(=O)c1cc(-c2cccnc2)nc2ccc(S(=O)(=O)N3CCC(C)CC3)cc12
EC50 [25]: > 100 µM (inactive)
CC50 (Vero): 9.06 µM (active)

O=C(O)Cc1sc(Nc2ccc(F)cc2)nc1-c1cccs1
IC50 [26]: > 50 µM (inactive)
IC50 [27]: 9.21 µM (active)

O=c1c2ccccc2sn1-c1cccc(I)c1
IC50 (Phosphomannomutase 2): > 100 µM (inactive)

O=C(COc1ccccc1)N/N=C/c1ccc([N+](=O)[O-])o1
AC50 [28]: 21.5 µM (active)
AC50 [29]: 21.2 µM (active)
EC50 [30]: 122 nM (active)
EC50 [31]: 7.39 µM (active)
EC50 [32]: > 60 µM (not active)
EC50 [33]: 6.95 µM (active)
AC50 (Trypanosoma cruzi): 317 nM (active)

CC(C)(C)c1nn(-c2ccccc2)c2[nH]c(=O)c(CNCc3ccc4c(c3)OCO4)cc12
CC50 [4]: 27.2 µM (active)
IC50 [34]: 2.67 µM (active)
